According to US20240287549A1, “METHODS AND COMPOSITIONS FOR EFFICIENT PRODUCTION OF BIOFUELS AND BIOPLASTICS FROM TOXIC FEEDSTOCKS” (Massachusetts Institute of Technology, priority 2021, published 2024):

Legend:
[1] = tested on: prototrophic wildtype (WT) strain FY4/5; assay: Constituent toxicity: ethanol titer of high-gravity fermentation in YSC with single inhibitors; assay type: cell-based, Saccharomyces cerevisiae; settings: for effect of KCl alone on ethanol titer: plus 50 mM KCl only; for additional boost of ethanol production by K+/pH adjustment: 50 mM KCl and NH4OH to pH 6 vs unadjusted
Description: To systematically characterize the impact of these constituent toxicities, ethanol production was assessed in yeast synthetic complete medium (YSC) with the 3 inhibitors added individually at equimolar concentration. As a completely chemically-defined formulation with trace vitamins, minerals, and amino acids, YSC lacks the undefined extracts contained in “rich” media that could supply unknown components to boost or hinder tolerance. […] For the constituent toxicity studies, prototrophic strain FY4/5 was expanded in a starter culture of YSC containing 150 g/L glucose and grown overnight to approximately OD600=10. To mimic industrial high cell density conditions, 100 OD600 units of cells per fermentation were harvested, washed with an equal volume of room temperature distilled and deionized water, and cell pellets resuspended in 4 mL media for a production cell density of approximately OD600=25 (9.9 g DCW/L). Fermentation media consisted of 250 g/L glucose in YSC and were supplemented with (left to right in FIG. 1A) 6 mM NH4Cl, 50/6 mM KCl/NH4OH, 100/128 mM acetic acid/NH4Cl, 100/50/128 mM acetic acid/KCl/NH4Cl, 100/50/128 mM acetic acid/KCl/NH4OH, 100/11 mM furfural/NHCl, 100/50/11 mM furfural/KCl/NH4OH, 100/7 mM 2-furanmethanol (FF—OH)/NHCl, 100/50/7 mM FF—OH/KCl/NH4Cl, 100/50/7 mM FF—OH/KCl/NHOH, 100/7 mM 5-hydroxymethyl-furfural (HMF)/NH4Cl, 100/50/7 mM HMF/KCl/NHOH, 100/7 mM furan-2,5-dimethanol (HMF-OH)/NH4Cl, 100/50/7 mM HMF-OH/KCl/NH4Cl, or 100/50/7 mM HMF-OH/KCl/NH4OH.
Inhibitor supplementation for the additionally screened conditions in FIGS. 2A-2C were: 50/60 mM acetic acid/NHCl, 50/50/60 mM acetic acid/KCl/NH4OH, 150/180 mM acetic acid/NH4Cl, 150/50/180 mM acetic acid/KCl/NH4OH, 50/9 mM furfural/NH4Cl, 50/50/9 mM furfural/KCl/NH4OH, 50/6 mM FF—OH/NHCl, 50/50/6 mM FF—OH/KCl/NH4OH, 150/15 mM furfural/NH4Cl. 150/50/15 mM furfural/KCl/NH4OH, 150/9 mM FF—OH/NH4Cl, 150/50/9 mM FF—OH/KCl/NH4OH, 50/6 mM HMF/NHCl, 50/50/6 mM HMF/KCl/NH4OH, 50/6 mM HMF-OH/NH4Cl, 50/50/6 mM HMF-OH/KCl/NH4OH, 150/11 mM HMF/NH4Cl, 150/50/11 mM HMF/KCl/NH4OH, 150/9 mM HMF-OH/NHCl, or 150/50/9 mM HMF-OH/KCl/NH4OH. The “/” notation is used for visual abbreviation but indicates the addition of all components during preparation. […] Furfural (Sigma-Aldrich #185914), HMF (Sigma-Aldrich #H40807), FF—OH (Sigma-Aldrich #W249106), and HMF-OH (Santa Cruz Biotechnology #sc-210242, scbt.com) were added directly to media in their supplier, concentrated forms to minimize the addition of volume. […] Fermentation samples of 550 μL were harvested after 48 h, cells removed by centrifugation (16,870×g, 2 min), and supernatants 0.45 μm syringe-filtered (Fisher Scientific #50-109-8735, fishersci.com) into glass HPLC vials and stored at 4° C. until analysis. Similarly, pre-inoculation fermentation media were syringe-filtered and diluted 1:5 in water for HPLC verification of starting glucose and inhibitor concentrations.
Analytes were separated isocratically in 5 mM sulfuric acid at 65° C. using a flow rate of […]. Under these conditions, retention times were approximately as follows: glucose 9.2 min, xylose 9.9 min, lactic acid 13.1 min, glycerol 13.8 min, acetic acid 15.3 min, ethanol 22.3 min, HMF 30.2 min, and furfural 45.0 min.

yeast [2] = settings: prior experience
yeast [3] = settings: previously established (ref. 16); cited from earlier work
[4] = tested on: medium toxified to 40/28/55 mM furfural/HMF/acetic acid; settings: Saccharomyces cerevisiae, pH 6
[5] = 100 mM of the substance in YSC, 250 g/L glucose, 48 h, 30 °C, no K+/pH adjustment
[6] = 100 mM of the substance, plus 50 mM KCl and NH4OH to pH 6

SMILES	ethanol titer [1, 5] [g/L]	ethanol titer [1, 6] [g/L]	effect of KCl alone on ethanol titer ([1]; 100 mM of the substance)	further results
O=Cc1ccco1 [furfural]	4 ± 0.3	–	–	–
OCc1ccc(CO)o1 [HMF-OH, furan-2,5-dimethanol]	–	69 ± 0.6	improvements intermediate to those with K+/pH together	additional boost of ethanol production by K+/pH adjustment ([1]; 100 mM): 39%; higher ethanol titer than cognate aldehyde ([1]; 100 mM, HMF-OH vs HMF, no K+/pH adjustment): 45%
Cl.N [NH4Cl]	–	–	–	concentration tolerated with no detectable changes on ethanol titer (yeast [2]): at least 200 mM
[Ca+2] [Ca^2+]	–	–	–	effect on fermentation (yeast [3]): fermentation-neutral
OCc1ccco1 [FF—OH, 2-furanmethanol]	35 ± 0.4	59 ± 0.5	improvements intermediate to those with K+/pH together	additional boost of ethanol production by K+/pH adjustment ([1]; 100 mM): 69%; tolerated more than furfural at equimolar concentration (ethanol output) ([1]; 100 mM, FF-OH vs FF, no K+/pH adjustment): 9 ×
O=Cc1ccc(CO)o1 [HMF, 5-hydroxymethyl-furfural]	34 ± 0.3	–	–	concentration tolerable by yeast for growth to commence [4]: approximately 1.5 g/L
[K+] [K^+]	–	–	–	concentration up to which effects are fermentation-beneficial (yeast [3]): at least 110 mM
CC(=O)O [acetic acid]	17 ± 0.1	109 ± 0.6	no amelioration	–
